biological target: T1, Human Glucocorticoid Receptor (GR) (Homo sapiens, UniProt P04150); assay: Human Glucocorticoid Receptor (GR) radioligand binding assay (3H-dexamethasone competition); conditions: full length GR; 7 nM 3H-dexamethasone; 2 h at room temperature
T1 construct: The full length GR was diluted to a final concentration of 3.3% (0.495 mg/ml) in assay buffer
T1 sequence (P04150 1-777): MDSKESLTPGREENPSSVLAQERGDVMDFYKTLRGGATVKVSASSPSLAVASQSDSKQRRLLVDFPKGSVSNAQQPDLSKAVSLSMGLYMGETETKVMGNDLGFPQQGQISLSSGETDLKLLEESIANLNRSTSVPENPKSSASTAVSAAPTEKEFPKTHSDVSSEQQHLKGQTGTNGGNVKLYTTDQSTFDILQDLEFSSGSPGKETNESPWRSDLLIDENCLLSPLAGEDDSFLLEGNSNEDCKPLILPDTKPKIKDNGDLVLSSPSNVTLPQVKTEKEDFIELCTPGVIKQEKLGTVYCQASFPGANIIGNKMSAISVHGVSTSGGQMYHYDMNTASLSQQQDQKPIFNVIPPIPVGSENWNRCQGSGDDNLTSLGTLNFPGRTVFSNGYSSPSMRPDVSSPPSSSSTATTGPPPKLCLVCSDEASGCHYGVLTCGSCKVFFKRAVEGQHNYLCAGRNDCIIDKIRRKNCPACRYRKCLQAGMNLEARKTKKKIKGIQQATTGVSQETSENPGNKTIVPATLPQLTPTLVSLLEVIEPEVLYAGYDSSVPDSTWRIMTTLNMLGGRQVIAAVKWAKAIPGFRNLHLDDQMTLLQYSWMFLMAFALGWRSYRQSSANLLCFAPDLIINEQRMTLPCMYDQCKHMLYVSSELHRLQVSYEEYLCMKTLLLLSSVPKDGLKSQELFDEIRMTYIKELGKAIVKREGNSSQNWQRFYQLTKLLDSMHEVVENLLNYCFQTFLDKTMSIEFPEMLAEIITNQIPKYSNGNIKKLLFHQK
Description: Human Glucocorticoid Receptor (GR) Assay
The radioligand GR binding assay is based on a competition assay using ^3H-labeled Dexamethasone. Dexamethasone is known to bind in the ligand binding domain of GR and compete for binding with endogenous ligands like e.g. cortisol (Necela, 2003). In the GR radioligand binding assay, test compounds were serially diluted in semi-log steps (10 concentrations) with a final concentration of 10 μM. Test compounds (1 μL) and controls (1 μL) in 100% DMSO were added to 96 Greiner V-bottom polypropylene plates. 0% control was 6.7% DMSO (final concentration in assay) and 100% control was 6.7 μM Dexamethasone.
The full length GR was diluted to a final concentration of 3.3% (0.495 mg/ml) in assay buffer (20 mM Tris-HCl, 1 mM EDTA, 10% (w/v) Glycerol, 20 mM Sodium molybdate, pH 7.4). 45 μL of GR was added to each well and the plates were incubated for 15 min at room temperature.
^3H-dexamethasone solution was diluted to a concentration of 70 nM in assay buffer (7 nM final assay concentration) and 5 μL was added to each well. The samples were mixed for 5 min using a plate shaker at 700 rpm, before incubation for 2 h at room temperature.
50 μL ice-cold charcoal solution (pH 7.4:2% Charcoal, 0.2% Dextran T70 in 20 mM Tris-HCl, 1 mM EDTA and 20 mM Sodium molybdate) was added to each well and the samples were mixed on plate shaker for 5 minutes.
The plate was then centrifuged for 1.5 min at 1500 rpm, the samples (80 μL) were is transferred from each well to a filter plate (Millipore, 0.45 μm, MHVBN45) on a vacuum manifold and then collected into new plates (Greiner, 96 well white/transparent, 655095). The filter plate was washed once with 20 μl of water and then 100 μL of scintillation liquid was added to each well and mixed by incubation on plate shaker for 5 min. Radioactivity was measured in a 1450 Microbeta Trilux Reader (Wallac) counting cpm for 2 minutes per well. The data obtained from each replicate experiment were analysed using the software ActivityBase, version 5.4.3 (ID Business Solutions Ltd) and IC50 values were calculated. Ref: Necela, B M, Cidlowski, J A, Trends Pharmacol Sci, 24: 58, 2003

Row | SMILES | IC50 [nM]
1 | CCC(O)CNC(=O)c1cccc(-n2ncc3cc(O[C@H](c4ccc(OC)nc4)[C@H](C)NC(=O)C(C)(F)F)ccc32)c1 (stereo partly drawn) [Example 26, 3-(5-{[(1R,2S)-2-[(2,2-difluoropropanoyl)amino]-1-(6-methoxypyridin-3-yl)propyl]oxy}-1H-indazol-1-yl)-N-(2-hydroxybutyl)benzamide] | 4.13
2 | COc1ccc([C@@H](Oc2ccc3c(cnn3-c3cccc(C(=O)NC4CCCC4)c3)c2)[C@H](CO)NC(=O)C(C)(F)F)cn1 [Example 27] | 13.6
3 | COc1ccc([C@@H](Oc2ccc3c(cnn3-c3cccc(C(=O)NCc4cccnc4)c3)c2)[C@H](C)NC(=O)C(C)(F)F)cn1 [Example 28, 3-(5-{[(1R,2S)-2-[(2,2-difluoropropanoyl)amino]-1-(6-methoxypyridin-3-yl)propyl]oxy}-1H-indazol-1-yl)-N-(pyridin-3-ylmethyl)benzamide] | 1.39
